This is an account of results in patent US7851489B2, “Pyridinone compounds” (Bristol-Myers Squibb Company, priority 2006, dated 2010).

A short description of data set [1]: Pharmacokinetic parameters obtained in mice, 8 h oral exposure study. In kind it is in vivo. Particulars: mouse, serum; single oral dose 50 mg/kg, solution in 70% PEG400/30% water, fasted male Balb/C mice; read-out: Pharmacokinetic Parameters AUC0-8 h. On the procedure:
Pharmacokinetic Parameters Obtained in Mice. In a 8 h oral exposure studies, a single-dose of 50 mg/kg of the compounds were delivered as a solution in 70% PEG400/30% water by oral gavage to fasted adult male Balb/C mice (n=2 or 3 per compound). Three serum samples were collected from each mouse at 0.5, 1, 4, 8 h time points following oral dosing. The first two samples were obtained by retro-orbital bleed (˜100 μL/20-25 g mouse) and the third sample by cardiac puncture. The blood samples were allowed to clot on ice, centrifuged and then serum harvested. Plasma samples were stored at −20° C. prior to analysis. The plasma samples were analyzed for parent compound via HPLC coupled tandem mass spectrometry (LC/MS/MS).

The target in data set [2] is T1, GST-Met kinase (Homo sapiens, UniProt P08581).
T1 construct: host or cells: baculovirus expression system
In words: Met kinase assay. The class given is biochemical. To be noted: 1 μM ATP, polyGlu:Tyr (4:1) substrate, 60 min at 30° C.
Protocol: Incubation mixtures employed for the Met kinase assay contain a baculovirus expressed GST-Met kinase, the synthetic substrate polyGlu:Tyr, (4:1), ATP, ATP-γ-^33 P and buffer containing Mn^++, DTT, BSA, and Tris. Reactions were incubated for 60 minutes at 30° C. and stopped by the addition of cold trichloroacetic acid (TCA) to a final concentration 8%. TCA precipitates were collected onto GF/C unifilter plates (Packard Instrument Co., Meriden, Conn.) using a Filtermate universal harvester (Packard Instrument Co., Meriden, Conn.) and the filters are quantitated using a TopCount 96/384-well liquid scintillation counter (Packard Instrument Co., Meriden, Conn.). Dose response curves were generated to determine the concentration required to inhibit 50% of kinase activity (IC—50). Compounds were dissolved at 10 mM in dimethyl sulfoxide (DMSO) and evaluated at ten concentrations, each in duplicate. The final concentration of DMSO in the assay is 1.7%. IC—50 values were derived by non-linear regression.

In data set [3] the test system is U87 human glioblastoma model. In words: In vivo efficacy against U87 glioblastoma xenografts. The text has this:
In Vivo Efficacy Determination […] FIG. 2. Antitumor activity against U87 glioblastoma xenografts

Data set [4] has as its system GTL-16 human gastric carcinoma model. In words: In vivo efficacy against GTL-16 gastric carcinoma xenografts. The text has this:
In Vivo Efficacy Determination […] FIG. 1. Antitumor activity against GTL-16 gastric carcinoma xenografts

Data set [5] has as its target T2, CYP3A4 (Homo sapiens, UniProt P08684).
T2 construct: host or cells: baculovirus-infected insect cells
In words: Cytochrome P450 assay (recombinant human CYP isoforms, fluorescence). In kind it is in vitro ADME.
Protocol: The ability of compound to inhibit the major human cytochrome P450s (CYPs) responsible for drug metabolism was evaluated in vitro using recombinant human CYP isoforms. […] CYP3A4 inhibition was evaluated with two substrates: 7-benzyloxy-4-trifluoromethylcoumarin (BFC) and resorufin benzyl ether (BzRes). A single concentration of each model substrate (at approximately the apparent Km, with the exception of BFC, which was tested below the apparent Km) and multiple concentrations of the test compounds, separated by approximately ½ log units, were tested in duplicate. Metabolism of the model substrates was assayed by the production of 7-hydroxy-3-cyanocoumarin, 3-[2-(N,N-diethylamino)ethyl]-7-hydroxy-4-methylcoumarin, 7-hydroxy-4-trifluoromethylcoumarin or resorufin, and measured via fluorescence detection. Assays were conducted in 96-well microtiter plates in the presence of an NADPH generating system. Positive control samples were included in these studies. […] The IC50 values were calculated utilizing XLfit curve-fitting software.

Read-outs that look alike come from different tables or passages of the source.

For orientation: IC50 means the point on the concentration scale where inhibition reaches its midpoint.

T2 sequence (P08684 whole entry): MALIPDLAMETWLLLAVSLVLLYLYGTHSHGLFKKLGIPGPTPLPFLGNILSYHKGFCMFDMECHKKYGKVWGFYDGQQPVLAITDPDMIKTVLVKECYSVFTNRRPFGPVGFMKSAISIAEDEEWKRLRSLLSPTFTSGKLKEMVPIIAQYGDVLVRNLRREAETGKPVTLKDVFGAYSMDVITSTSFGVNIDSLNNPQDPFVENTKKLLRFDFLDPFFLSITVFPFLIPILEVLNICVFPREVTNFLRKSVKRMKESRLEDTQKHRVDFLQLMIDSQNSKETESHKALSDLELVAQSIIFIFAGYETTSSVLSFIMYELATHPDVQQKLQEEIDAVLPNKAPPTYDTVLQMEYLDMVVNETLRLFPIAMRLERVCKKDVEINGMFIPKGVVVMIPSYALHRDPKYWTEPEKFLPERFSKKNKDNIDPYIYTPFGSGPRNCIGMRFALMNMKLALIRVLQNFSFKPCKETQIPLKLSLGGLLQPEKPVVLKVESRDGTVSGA
T1 sequence (P08581 25-1390): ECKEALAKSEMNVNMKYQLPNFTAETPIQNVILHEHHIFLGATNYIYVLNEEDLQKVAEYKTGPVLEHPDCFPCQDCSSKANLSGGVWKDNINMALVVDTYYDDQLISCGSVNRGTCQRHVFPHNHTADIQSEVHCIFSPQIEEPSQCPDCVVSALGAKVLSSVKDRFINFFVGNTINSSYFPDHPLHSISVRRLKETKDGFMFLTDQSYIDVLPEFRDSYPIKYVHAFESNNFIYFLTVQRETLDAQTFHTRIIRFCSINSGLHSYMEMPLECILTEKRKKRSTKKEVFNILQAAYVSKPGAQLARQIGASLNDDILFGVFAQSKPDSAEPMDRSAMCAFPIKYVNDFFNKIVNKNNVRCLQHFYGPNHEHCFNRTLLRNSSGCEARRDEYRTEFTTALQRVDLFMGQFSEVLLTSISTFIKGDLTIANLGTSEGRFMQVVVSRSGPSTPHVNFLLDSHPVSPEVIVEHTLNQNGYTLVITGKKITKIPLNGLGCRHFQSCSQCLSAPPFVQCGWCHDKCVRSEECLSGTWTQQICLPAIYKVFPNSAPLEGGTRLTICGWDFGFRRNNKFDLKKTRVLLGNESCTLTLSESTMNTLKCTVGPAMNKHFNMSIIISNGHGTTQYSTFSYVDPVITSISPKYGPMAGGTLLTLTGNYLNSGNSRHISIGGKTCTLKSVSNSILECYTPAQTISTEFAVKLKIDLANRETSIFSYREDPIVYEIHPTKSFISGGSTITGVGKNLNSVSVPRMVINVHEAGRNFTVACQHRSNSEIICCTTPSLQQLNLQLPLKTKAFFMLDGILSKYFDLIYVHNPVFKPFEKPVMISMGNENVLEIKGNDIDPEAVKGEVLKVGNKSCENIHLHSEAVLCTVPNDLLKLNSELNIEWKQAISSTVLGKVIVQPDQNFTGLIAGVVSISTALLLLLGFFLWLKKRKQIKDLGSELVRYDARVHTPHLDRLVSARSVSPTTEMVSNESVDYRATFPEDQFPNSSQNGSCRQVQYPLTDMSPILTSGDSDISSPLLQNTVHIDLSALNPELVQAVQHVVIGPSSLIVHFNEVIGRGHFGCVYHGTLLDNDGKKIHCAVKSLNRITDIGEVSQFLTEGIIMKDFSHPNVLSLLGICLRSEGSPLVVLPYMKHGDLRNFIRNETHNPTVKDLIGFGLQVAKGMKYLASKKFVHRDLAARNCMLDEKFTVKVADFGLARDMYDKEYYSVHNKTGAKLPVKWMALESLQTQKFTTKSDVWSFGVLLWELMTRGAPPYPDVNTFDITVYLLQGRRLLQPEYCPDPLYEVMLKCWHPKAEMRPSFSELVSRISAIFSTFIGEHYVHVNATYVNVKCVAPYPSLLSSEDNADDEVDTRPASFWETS

Turning to `CCOc1ccn(-c2ccc(F)cc2)c(=O)c1C(=O)Nc1ccc(Oc2ccnc(N)c2Cl)c(F)c1` [Compound 1, N-(4-(2-Amino-3-chloropyridin-4-yloxy)-3-fluorophenyl)-4-ethoxy-1-(4-fluorophenyl)-2-oxo-1,2-dihydropyridine-3-carboxamide], the AUC(0-t) in data set [1] came to 236 µM·h. In data set [2], this compound showed an IC50 of 3.5 nM. Also, the antitumor activity entry in data set [3] (25 mg/kg) is reported as “complete tumor stasis”; in data set [3] (50 mg/kg), “complete tumor stasis”; in data set [4] (GTL-16 xenografts, 25 mg/kg), “complete tumor stasis”; in data set [4] (GTL-16 xenografts, 50 mg/kg), “complete tumor stasis”. For the same compound, the overt toxicity result in data set [4] (GTL-16 study, 6.25 mg/kg to 50 mg/kg dosed once a day for 14 days) is “No overt toxicity was observed”. Also, the “maximum efficacious dose level” value in data set [4] (GTL-16 tumor xenograft) was determined as 25 mg/kg. Moreover, the “minimum efficacious dose (MED)” value in data set [4] (GTL-16 tumor xenograft) was found to be 6.25 mg/kg. For the same compound, the “antitumor activity at higher dose” value in data set [4] (GTL-16 xenografts, 100 mg/kg, previously described study) is listed as “no increase in activity was observed”. Moreover, the “tumor growth inhibition (TGI)” value is “greater than 50%” in data set [4] (GTL-16 xenografts, lowest dose level tested, 6.25 mg/kg) and “greater than 50%” in data set [4] (GTL-16 xenografts, multiple dose levels ranging from 6.25 mg/kg to 50 mg/kg, once a day for 14 days, for at least one tumor doubling time).

Take `Cl.Nc1cc(Oc2ccc(NC(=O)c3cccn(-c4ccc(F)cc4)c3=O)cc2F)ccn1` [Compound 2, N-(4-(2-Aminopyridin-4-yloxy)-3-fluorophenyl)-1-(4-fluorophenyl)-2-oxo-1,2-dihydropyridine-3-carboxamide, hydrochloride salt]: in data set [1], the AUC(0-t) was determined as 33 µM·h. For the same compound, the IC50 in data set [5] (substrate 7-benzyloxy-4-trifluoromethylcoumarin (BFC), read-out: CYP 3A4-BFC IC50) is 510 nM; in data set [5] (substrate resorufin benzyl ether (BzRes), read-out: CYP 3A4-BZR IC50), 6400 nM.
